Data reported in the NIST ThermoML archive (doi:10.1016/j.tca.2007.04.012).
Numbers after ± are expanded uncertainties.

Experiments:
[1] = 298.15 K; 101.33 kPa; Liquid; Vibrating tube method
[2] = xn = mol fraction of the nth substance listed; conditions: 298.15 K, 101 kPa, Liquid, Vibrating tube method
[3] = excess molar enthalpy (molar enthalpy of mixing); xn = mol fraction of the nth substance listed; conditions: 298.15 K, 101 kPa, Liquid, Flow calorimetry

OCC(F)(F)F [2,2,2-trifluoroethanol]
Conditions | mass density [kg/m3]
[1] | 1383.41 ± 0.24

OCC(F)(F)F [2,2,2-trifluoroethanol] + CCCO
Conditions | excess molar enthalpy [kcal/mol] | mass density [kg/m3]
[2], x1 = 0.00607 | – | 802.48 ± 0.14
[2], x1 = 0.01063 | – | 804.92 ± 0.14
[2], x1 = 0.02216 | – | 810.94 ± 0.14
[2], x1 = 0.03141 | – | 815.81 ± 0.13
[2], x1 = 0.1032 | – | 853.69 ± 0.13
[2], x1 = 0.2022 | – | 906.48 ± 0.14
[2], x1 = 0.3118 | – | 965.59 ± 0.18
[2], x1 = 0.408 | – | 1018.5 ± 0.23
[2], x1 = 0.5085 | – | 1075.13 ± 0.29
[2], x1 = 0.6057 | – | 1131.49 ± 0.26
[2], x1 = 0.7074 | – | 1192.38 ± 0.23
[2], x1 = 0.8029 | – | 1251.85 ± 0.21
[2], x1 = 0.9023 | – | 1316.56 ± 0.21
[2], x1 = 0.9671 | – | 1360.54 ± 0.22
[2], x1 = 0.9785 | – | 1368.42 ± 0.23
[2], x1 = 0.9898 | – | 1376.24 ± 0.23
[2], x1 = 0.9948 | – | 1379.83 ± 0.23
[2], x1 = 1 | – | 1383.41 ± 0.23
[3], x1 = 0.0054 | -0.00299 ± 0.000215 | –
[3], x1 = 0.0092 | -0.00578 ± 0.000239 | –
[3], x1 = 0.02045 | -0.0111 ± 0.000263 | –
[3], x1 = 0.03258 | -0.0163 ± 0.000311 | –
[3], x1 = 0.04077 | -0.0215 ± 0.000359 | –
[3], x1 = 0.051 | -0.026 ± 0.000382 | –
[3], x1 = 0.1013 | -0.0439 ± 0.000526 | –
[3], x1 = 0.2013 | -0.0642 ± 0.000693 | –
[3], x1 = 0.3023 | -0.0721 ± 0.000741 | –
[3], x1 = 0.4041 | -0.073 ± 0.000741 | –
[3], x1 = 0.4962 | -0.0645 ± 0.000693 | –
[3], x1 = 0.5974 | -0.0539 ± 0.000598 | –
[3], x1 = 0.6998 | -0.0417 ± 0.000502 | –
[3], x1 = 0.7987 | -0.0275 ± 0.000406 | –
[3], x1 = 0.9003 | -0.0137 ± 0.000287 | –
[3], x1 = 0.9108 | -0.0123 ± 0.000287 | –
[3], x1 = 0.9211 | -0.011 ± 0.000263 | –
[3], x1 = 0.9333 | -0.00978 ± 0.000263 | –
[3], x1 = 0.9409 | -0.00832 ± 0.000239 | –
[3], x1 = 0.9486 | -0.00703 ± 0.000239 | –
[3], x1 = 0.9577 | -0.00578 ± 0.000239 | –
[3], x1 = 0.9694 | -0.00409 ± 0.000215 | –
[3], x1 = 0.9839 | -0.00258 ± 0.000215 | –
[3], x1 = 0.9916 | -0.00108 ± 0.000191 | –
[3], x1 = 0.9961 | -0.000406 ± 0.000191 | –

OCC(F)(F)F [2,2,2-trifluoroethanol] + CCO
Conditions | excess molar enthalpy [kcal/mol] | mass density [kg/m3]
[2], x1 = 0.00449 | – | 788 ± 0.15
[2], x1 = 0.00898 | – | 791.1 ± 0.15
[2], x1 = 0.02012 | – | 798.87 ± 0.14
[2], x1 = 0.02992 | – | 805.61 ± 0.14
[2], x1 = 0.04022 | – | 812.7 ± 0.14
[2], x1 = 0.05208 | – | 820.82 ± 0.14
[2], x1 = 0.1002 | – | 853.17 ± 0.13
[2], x1 = 0.2003 | – | 918.54 ± 0.15
[2], x1 = 0.3001 | – | 981.36 ± 0.19
[2], x1 = 0.3999 | – | 1042.13 ± 0.25
[2], x1 = 0.5003 | – | 1101.6 ± 0.31
[2], x1 = 0.6012 | – | 1160.07 ± 0.26
[2], x1 = 0.7025 | – | 1217.72 ± 0.23
[2], x1 = 0.7851 | – | 1264.15 ± 0.21
[2], x1 = 0.9109 | – | 1334.11 ± 0.21
[2], x1 = 0.92 | – | 1339.16 ± 0.22
[2], x1 = 0.9299 | – | 1344.65 ± 0.22
[2], x1 = 0.9497 | – | 1355.58 ± 0.22
[2], x1 = 0.9597 | – | 1361.14 ± 0.22
[2], x1 = 0.9697 | – | 1366.65 ± 0.23
[2], x1 = 0.9798 | – | 1372.26 ± 0.23
[2], x1 = 0.9897 | – | 1377.67 ± 0.23
[2], x1 = 1 | – | 1383.41 ± 0.23
[3], x1 = 0.00586 | -0.00471 ± 0.000215 | –
[3], x1 = 0.0106 | -0.00946 ± 0.000263 | –
[3], x1 = 0.02013 | -0.0193 ± 0.000335 | –
[3], x1 = 0.03032 | -0.0283 ± 0.000406 | –
[3], x1 = 0.03992 | -0.0369 ± 0.000478 | –
[3], x1 = 0.04851 | -0.0448 ± 0.000526 | –
[3], x1 = 0.06244 | -0.0517 ± 0.000598 | –
[3], x1 = 0.07146 | -0.0594 ± 0.000645 | –
[3], x1 = 0.08127 | -0.0666 ± 0.000693 | –
[3], x1 = 0.09052 | -0.0739 ± 0.000765 | –
[3], x1 = 0.09891 | -0.0797 ± 0.000813 | –
[3], x1 = 0.199 | -0.1256 ± 0.00117 | –
[3], x1 = 0.2992 | -0.1503 ± 0.00136 | –
[3], x1 = 0.3995 | -0.1603 ± 0.00146 | –
[3], x1 = 0.5039 | -0.157 ± 0.00143 | –
[3], x1 = 0.6029 | -0.1387 ± 0.00127 | –
[3], x1 = 0.7014 | -0.1179 ± 0.0011 | –
[3], x1 = 0.7964 | -0.08435 ± 0.000837 | –
[3], x1 = 0.8945 | -0.0468 ± 0.00055 | –
[3], x1 = 0.9072 | -0.0426 ± 0.000526 | –
[3], x1 = 0.916 | -0.0381 ± 0.000478 | –
[3], x1 = 0.9278 | -0.0345 ± 0.000454 | –
[3], x1 = 0.9389 | -0.0293 ± 0.000406 | –
[3], x1 = 0.9516 | -0.024 ± 0.000382 | –
[3], x1 = 0.9618 | -0.0199 ± 0.000335 | –
[3], x1 = 0.9729 | -0.0139 ± 0.000287 | –
[3], x1 = 0.9826 | -0.00901 ± 0.000263 | –
[3], x1 = 0.992 | -0.00356 ± 0.000215 | –
[3], x1 = 0.9988 | -0.000908 ± 0.000191 | –
